Data from patent publication US20080206311A1, “Sucrase Activity Inhibitor, Glucoamylase Activity Inhibitor and Food and Feed Containing the Same” (MITSUI SUGAR CO., LTD., priority 2005, published 2008).

What was measured:
[1] = test system: small-intestinal enzyme liquid; test: Decomposition of a saccharide alone (control solution) by small-intestinal enzyme liquid; format: biochemical, rat
Procedure: (§1) Palatinose (trade name: Palatinose IC, ex Shin Mitsui Sugar Co., Ltd.) (test sample) was used as a sample for investigating each enzyme activity inhibitory effect. Maltose and sucrose were used as substrates for maltase and sucrose, respectively. The test sample and the substrates were dissolved in 0.1 M phosphate buffer (pH 6.8) at the concentration shown in Table 1 below to prepare test solutions (Solutions 4 and 5). Also, the test sample or the substrates were dissolved in 0.1 M phosphate buffer (pH 6.8), respectively to at the concentration shown in Table 1 below to prepare control solutions (Solution 1 for the test sample and Solutions 2 and 3 for the substrates).
(§2) Two grams of rat small-intestinal acetone powder (ex Sigma Corporation) were dissolved in 20 ml of 0.1 M phosphate buffer (pH 6.8), left standing one day at 5° C., and subsequently subjected to centrifugal separation (8000 rpm×15 min.). The supernatant was filtered through a 0.8 μm membrane filter to obtain a small-intestinal enzyme liquid. This liquid contained a mixture of enzymes present in small intestine, such as sucrose, glucoamylase, maltase, and isomaltase.
(§3) Each 0.25 ml of the small-intestinal enzyme liquid was added to each 5 ml of Solutions 1 through 5 and placed in a water bath at 37° C. to allow them to react for 60 min. while shaken at 60 strokes/min. After the reaction, they were heated in a boiling water bath for 3 min. for inactivation of the enzymes.
(§4) The glucose concentration in each solution after the reaction was measured using the F-kit Glucose (ex Roche). A liberated glucose concentration (g/l) was calculated by subtracting the blank value (0.1 M phosphate buffer alone) and the concentration of glucose originally contained in the test sample from each glucose concentration measured.
The fructose concentration was measured using the F-kit Fructose (ex Roche). The liberated fructose concentration, g/l, was obtained by subtracting the blank value (0.1 M phosphate buffer alone) from the resultant fructose concentration.
The procedures in Example 1 were repeated with the exception that palatinit, palatinose or isomaltose was used as a test sample and lactose was used as a substrate. The test samples and the substrate were dissolved in 0.1 M phosphate buffer (pH 6.8) to attain the concentration shown in Table 5 to thereby prepare three test solutions. Besides, each of the test samples or the substrate was dissolved in 0.1 M phosphate buffer (pH 6.8) to attain the concentration shown in Table 5 to thereby prepare control solutions. Each 5 ml of the aforementioned test solutions and the control solutions was subjected to the enzymatic reaction according to the same procedures as in Example 1. The glucose concentration, the fructose concentration and the galactose concentration were measured. The galactose concentration was measured using F-kit Galactose (ex Roche). The liberated galactose concentration, g/l, was calculated by subtracting the blank value (0.1 M phosphate buffer alone) from the measured galactose concentration.

[2] = molecular target: T1, sucrose-isomaltase complex (Rattus norvegicus, UniProt P23739); test: Confirmation test: decomposability of the sucrose-isomaltase complex (crude enzyme) on dextrin; format: biochemical; conditions: 37° C., 20 min
T1 construct: tissue Sigma Corporation; host or cells: rat small intestine (acetone powder); papain treatment, 45-65% ammonium sulfate cut, dialysis, DEAE-Cellulose fraction with highest sucrase activity
T1 sequence (P23739 33-1841 limits assumed, one chain of several): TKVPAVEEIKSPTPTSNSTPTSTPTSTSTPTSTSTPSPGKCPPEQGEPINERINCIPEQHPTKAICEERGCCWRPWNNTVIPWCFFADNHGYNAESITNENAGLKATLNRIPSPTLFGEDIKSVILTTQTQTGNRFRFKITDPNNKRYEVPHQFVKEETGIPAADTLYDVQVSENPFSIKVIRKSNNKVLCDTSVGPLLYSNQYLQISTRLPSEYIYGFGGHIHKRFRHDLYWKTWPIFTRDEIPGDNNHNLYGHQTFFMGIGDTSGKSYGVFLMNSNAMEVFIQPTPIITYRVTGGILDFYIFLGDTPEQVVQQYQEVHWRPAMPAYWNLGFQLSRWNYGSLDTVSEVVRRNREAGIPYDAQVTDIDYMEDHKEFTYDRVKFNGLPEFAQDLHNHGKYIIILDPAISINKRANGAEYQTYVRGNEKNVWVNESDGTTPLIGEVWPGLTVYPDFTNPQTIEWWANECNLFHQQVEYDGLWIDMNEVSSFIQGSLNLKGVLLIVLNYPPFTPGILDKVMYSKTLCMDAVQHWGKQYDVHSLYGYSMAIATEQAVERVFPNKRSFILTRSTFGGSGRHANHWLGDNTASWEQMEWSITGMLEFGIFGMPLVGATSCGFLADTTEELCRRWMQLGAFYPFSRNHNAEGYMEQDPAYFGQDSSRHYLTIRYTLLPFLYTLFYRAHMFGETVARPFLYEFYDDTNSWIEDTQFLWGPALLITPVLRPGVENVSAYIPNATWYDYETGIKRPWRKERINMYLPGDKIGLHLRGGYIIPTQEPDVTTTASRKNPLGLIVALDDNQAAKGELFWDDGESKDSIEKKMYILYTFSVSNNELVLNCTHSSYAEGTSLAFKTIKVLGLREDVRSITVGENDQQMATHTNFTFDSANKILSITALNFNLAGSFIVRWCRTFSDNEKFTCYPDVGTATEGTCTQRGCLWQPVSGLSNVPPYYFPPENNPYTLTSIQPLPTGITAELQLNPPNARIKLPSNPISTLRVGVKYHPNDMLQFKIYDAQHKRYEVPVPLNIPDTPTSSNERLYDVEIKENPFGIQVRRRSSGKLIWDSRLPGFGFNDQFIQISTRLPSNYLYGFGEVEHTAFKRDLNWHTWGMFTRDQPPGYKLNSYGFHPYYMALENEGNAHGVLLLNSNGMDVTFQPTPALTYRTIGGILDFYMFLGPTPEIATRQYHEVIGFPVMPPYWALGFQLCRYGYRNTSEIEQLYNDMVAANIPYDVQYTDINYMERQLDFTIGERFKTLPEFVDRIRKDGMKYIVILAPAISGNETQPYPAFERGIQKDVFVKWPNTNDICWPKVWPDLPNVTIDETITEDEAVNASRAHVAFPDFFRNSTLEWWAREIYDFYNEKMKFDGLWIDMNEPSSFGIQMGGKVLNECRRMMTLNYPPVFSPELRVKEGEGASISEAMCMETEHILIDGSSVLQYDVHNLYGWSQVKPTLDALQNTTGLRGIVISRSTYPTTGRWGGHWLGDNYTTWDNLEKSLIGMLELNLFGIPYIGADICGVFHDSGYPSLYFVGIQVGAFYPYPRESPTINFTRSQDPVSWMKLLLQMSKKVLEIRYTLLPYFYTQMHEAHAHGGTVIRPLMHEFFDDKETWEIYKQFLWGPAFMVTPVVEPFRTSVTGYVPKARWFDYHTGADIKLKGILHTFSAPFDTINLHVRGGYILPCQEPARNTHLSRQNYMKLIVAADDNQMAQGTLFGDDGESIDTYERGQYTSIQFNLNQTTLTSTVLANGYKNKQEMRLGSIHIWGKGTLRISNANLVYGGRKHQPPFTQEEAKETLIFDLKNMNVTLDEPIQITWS
Procedure: Decomposability of the sucrose-isomaltase complex on dextrin was investigated in order to confirm that decomposition of starch in the following Examples 4, 6 and 7 and Test Example 5 was attained by glucoamylase, but not by sucrose or isomaltase.
A. Extraction of a crude enzyme, sucrose-isomaltase complex Twenty grams of rat small-intestinal acetone powder (ex Sigma Corporation) were added to 180 ml of 50 mM potassium phosphate buffer (pH 7.0) and extracted for 4 hours while slowly stirred at room temperature, to which 6.5 ml of a cysteine solution (100 mg/10 ml) and 1.5 ml of a papain solution (MP Biomedicals, LLC 80 mg/2 ml) were subsequently added and the mixture was incubated at 37° C. for 1 hour to conduct a papain treatment. Then, a supernatant was recovered by centrifugal separation (8000 rpm×15 min.) and further filtered by aspiration using Toyo Filter Paper No. 2 to obtain 164 ml of a crude enzyme solution. Protein was precipitated at an ammonium sulfate concentration of 45% from the crude enzyme solution and then a supernatant was recovered by centrifugal separation (8000 rpm×15 min.). Next, ammonium sulfate was added to the supernatant up to a concentration of 65% to precipitate protein, and then the precipitate was recovered by centrifugal separation (8000 rpm×15 min.). […] The enzymatic activity was measured for each fraction and the fraction with the highest activity of a sucrose-isomaltase complex was recovered to obtain a 12 ml crude enzyme solution. The sucrose-isomaltase complex activity was determined by measuring a decomposition activity for sucrose in each fraction. […] A glucose concentration was determined using the F-kit Glucose (ex Roche) described in item D below. […]
A glucose concentration in each sample after the reaction was measured using the F-kit Glucose (ex Roche Corporation). A liberated glucose concentration (g/l) was calculated by subtracting a blank value (0.1 M phosphate buffer alone (pH 6.8)) and a concentration of glucose originally contained in the test sample (dextrin and sucrose) from the determined glucose concentration.

sucrase = molecular target: T2, sucrase (Rattus norvegicus, UniProt P23739); test: Sucrase activity inhibition with rat small-intestinal enzyme liquid, substrate sucrose; format: biochemical; conditions: 5% sucrose + 5% test sample
T2 construct: This liquid contained a mixture of enzymes present in small intestine, such as sucrose, glucoamylase, maltase, and isomaltase; tissue Sigma Corporation; host or cells: rat small intestine (acetone powder), buffer extract, unpurified
T2 sequence (P23739 whole entry): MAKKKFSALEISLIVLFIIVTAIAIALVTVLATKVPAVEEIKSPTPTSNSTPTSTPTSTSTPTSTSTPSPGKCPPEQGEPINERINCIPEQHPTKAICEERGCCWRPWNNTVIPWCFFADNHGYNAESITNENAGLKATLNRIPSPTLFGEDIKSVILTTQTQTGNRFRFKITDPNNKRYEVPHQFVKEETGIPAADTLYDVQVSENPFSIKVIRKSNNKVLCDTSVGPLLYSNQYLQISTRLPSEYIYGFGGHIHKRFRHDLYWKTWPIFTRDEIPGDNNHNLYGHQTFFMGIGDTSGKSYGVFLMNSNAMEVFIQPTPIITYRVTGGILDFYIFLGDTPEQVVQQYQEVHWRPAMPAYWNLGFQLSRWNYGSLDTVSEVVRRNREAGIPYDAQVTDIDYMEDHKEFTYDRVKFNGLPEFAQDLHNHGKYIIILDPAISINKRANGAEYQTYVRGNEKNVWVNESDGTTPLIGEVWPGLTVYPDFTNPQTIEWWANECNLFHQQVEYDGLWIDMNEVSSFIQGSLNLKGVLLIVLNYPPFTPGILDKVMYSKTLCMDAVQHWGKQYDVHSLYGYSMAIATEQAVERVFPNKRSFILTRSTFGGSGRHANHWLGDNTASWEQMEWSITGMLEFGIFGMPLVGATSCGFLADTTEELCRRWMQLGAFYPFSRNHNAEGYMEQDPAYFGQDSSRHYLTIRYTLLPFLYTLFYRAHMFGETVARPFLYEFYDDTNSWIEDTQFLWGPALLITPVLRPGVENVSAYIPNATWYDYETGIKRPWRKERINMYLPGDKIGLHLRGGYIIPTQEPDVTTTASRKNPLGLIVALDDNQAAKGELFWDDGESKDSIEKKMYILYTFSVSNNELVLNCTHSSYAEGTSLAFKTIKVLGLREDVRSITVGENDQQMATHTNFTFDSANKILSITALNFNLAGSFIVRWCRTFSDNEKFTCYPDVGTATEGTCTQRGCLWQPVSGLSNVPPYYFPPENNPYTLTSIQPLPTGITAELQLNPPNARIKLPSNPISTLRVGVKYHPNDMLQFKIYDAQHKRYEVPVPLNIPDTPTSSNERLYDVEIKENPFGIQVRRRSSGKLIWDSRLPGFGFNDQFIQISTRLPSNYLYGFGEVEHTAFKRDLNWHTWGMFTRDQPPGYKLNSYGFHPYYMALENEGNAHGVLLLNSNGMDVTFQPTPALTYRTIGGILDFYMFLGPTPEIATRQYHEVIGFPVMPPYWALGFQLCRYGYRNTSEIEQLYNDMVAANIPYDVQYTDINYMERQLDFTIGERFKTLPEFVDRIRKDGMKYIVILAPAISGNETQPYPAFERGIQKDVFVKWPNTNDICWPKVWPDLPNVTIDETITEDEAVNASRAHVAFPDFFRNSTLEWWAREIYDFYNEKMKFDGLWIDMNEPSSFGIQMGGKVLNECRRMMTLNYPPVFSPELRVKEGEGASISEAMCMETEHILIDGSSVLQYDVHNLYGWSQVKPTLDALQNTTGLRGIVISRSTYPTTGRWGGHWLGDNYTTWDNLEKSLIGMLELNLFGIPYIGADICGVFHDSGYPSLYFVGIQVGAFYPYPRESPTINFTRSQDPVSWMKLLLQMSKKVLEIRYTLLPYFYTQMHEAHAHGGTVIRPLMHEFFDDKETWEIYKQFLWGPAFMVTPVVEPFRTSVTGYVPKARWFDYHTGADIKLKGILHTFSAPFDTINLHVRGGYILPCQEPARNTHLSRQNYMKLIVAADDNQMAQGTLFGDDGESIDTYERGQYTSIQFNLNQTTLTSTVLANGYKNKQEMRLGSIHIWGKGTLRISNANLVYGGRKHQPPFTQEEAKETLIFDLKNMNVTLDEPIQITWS
Procedure: as §1, §2, §3, §4
(§5) Next, each of the liberated glucose concentration was input in the following equation to obtain decomposition inhibition ratio for maltase and sucrose. In the present tests, the substrates and the inhibitors were decomposed by enzymes present in the small-intestinal enzyme liquid. However, the enzymes decomposing the substrates are different from the enzymes decomposing the inhibitors. The decomposition inhibition ratio was determined as a measure for the inhibitory effect. When the inhibitor was added, the glucose concentration was lower than that seen when the substrate alone was reacted. A higher decomposition inhibition ratio means a stronger inhibitory effect.
(§6) Decomposition inhibition ratio,%={(A+B)−(AB)}+(A+B)×100 [Equation 1]
(§7) wherein (A+B) indicates a sum of a liberated glucose concentration in the control solution containing the test sample alone after the reaction (A) and a liberated glucose concentration in the control solution containing the substrate alone after the reaction (B); and (AB) indicates a liberated glucose concentration in the test solution containing the test sample (A) and the substrate (B), after the reaction.
The procedures in Example 1 were repeated with the exception that the test solutions contained 5% of sucrose and 0.5%, 1.0%, 3.0% or 5.0% of palatinose to examine intensity of the sucrose activity inhibition. A control solution contained 5% of sucrose in 0.1 M phosphate buffer (pH 6.8).
The procedures in Example 1 were repeated with the exception that palatinit and palatinose were used as test samples and sucrose was used as a substrate. The test samples and the substrate were dissolved in 0.1 M phosphate buffer (pH 6.8) to attain the concentration shown in Table 3 to thereby prepare two test solutions. Besides, each one of the test samples or the substrate was dissolved in 0.1 M phosphate buffer (pH 6.8) to attain the concentration shown in Table 3 to thereby prepare control solutions. Each 5 ml of the aforementioned test solutions or the control solutions was subjected to the enzymatic reaction according to the same procedures as in Example 1. The glucose concentration and the fructose concentration were measured. […]

glucoamylase = test: Glucoamylase activity inhibition with rat small-intestinal enzyme liquid, substrate soluble starch; format: biochemical; conditions: 5% soluble starch + 5% test sample
Procedure: as §2, §3, §4, §5, §6, §7
The procedures in Example 1 were repeated with the exception that palatinose and palatinit were used as a test sample and soluble starch was used as a substrate. The test samples and the substrate were dissolved in 0.1 M phosphate buffer (pH 6.8) to attain the concentration shown in Table 6 to thereby prepare two test solutions. Besides, each of the test samples or the substrate was dissolved in 0.1 M phosphate buffer (pH 6.8) to attain the concentration shown in Table 6 to thereby prepare control solutions. Each 5 ml of the aforementioned test solutions and the control solutions was subjected to the enzymatic reaction according to the same procedures as in Example 1 and the liberated glucose concentration and the decomposition inhibition ratio were measured.
The procedures in Example 1 were repeated with the exception that trehalulose was used as a test sample and soluble starch was used as a substrate. The test sample and the substrate were dissolved in 0.1 M phosphate buffer (pH 6.8) to attain the concentration shown in Table 9 to thereby prepare a test solution. Besides, the test sample or the substrate was dissolved in 0.1 M phosphate buffer (pH 6.8) to attain the concentration shown in Table 9 to thereby prepare control solutions. Each 5 ml of the aforementioned test solution and the control solutions was subjected to the enzymatic reaction according to the same procedures as in Example 1 and the liberated glucose concentration and the decomposition inhibition ratio were measured.
The procedures in Example 1 were repeated with the exception that trehalose was used as a test sample and soluble starch was used as a substrate. […]

[3] = molecular target: (Homo sapiens, UniProt P14410); conditions: 5-75 mM sucrose as substrate, 5 mM trehalulose as inhibitor; cited from earlier work
[4] = 5% saccharide alone, Example 3 / Test Examples 2, 3
[5] = 5% saccharide alone, Example 5 / Test Example 4
[6] = crude enzyme liquid 0.125 ml, dextrin 2% (Sample 1) or sucrose 26.6 mM (Sample 3)

Compound | Liberated glucose concentration ([1]; 5% saccharide alone, 37° C., 60 min, pH 6.8, Example 1 / Test Example 1) [g/L] | Liberated fructose concentration [1, 4] [g/L] | Liberated glucose concentration [1, 4] [g/L] | Liberated glucose concentration [1, 5] [g/L] | Total concentration of liberated monosaccharides (glucose + fructose) ([1]; control solution with sucrose only, 5%) [g/L] | Mean amount of produced glucose [2, 6] [g/L] | Sucrase activity inhibitory effect (in words) (sucrase) | Decomposition inhibition ratio, %, against sucrase (sucrase; Example 5 / Test Example 4) [%] | Liberated glucose concentration (sucrase; Example 5 / Test Example 4) [g/L] | Glucoamylase activity inhibitory effect (in words) (glucoamylase) | Decomposition inhibition ratio, %, against glucoamylase (glucoamylase; Example 6 / Test Example 5) [%] | Liberated glucose concentration (glucoamylase; Example 6 / Test Example 5) [g/L] | Liberated glucose concentration ([1]; 5% saccharide alone, Example 6 / Test Example 5) [g/L] | Inhibitory effect on the sucrase activity (reported) [3] | Mean amount of produced glucose ([2]; crude enzyme liquid 0.25 ml, dextrin 2% (Sample 2)) [g/L]
OC[C@H]1O[C@@](CO)(O[C@H]2O[C@H](CO)[C@@H](O)[C@H](O)[C@H]2O)[C@@H](O)[C@@H]1O [sucrose] | 0.959 ± 0.022 | 1.09 | 1.01 | 1.628 | 2.10 | 0.474 | – | – | – | – | – | – | – | – | –
trehalulose | – | – | – | 0.558 | – | – | has the sucrose activity inhibitory effect | 36 | 1.403 | has a glucoamylase activity inhibitory effect | 28 | 2.028 | 0.411 | no inhibitory effect | –
dextrin | – | – | – | – | – | 0.057 | – | – | – | – | – | – | – | – | 0.088
